From patent US11564913B2, “Compositions and methods for treating cancer” (Children's Hospital Medical Center, priority 2019, dated 2023)

How the values were obtained:
[1] = system: MDA-MB-231 triple negative breast cancer xenografts; experiment: MDA-MB-231 orthotopic xenograft mouse model; format: in vivo, mice
From the text: FIG. 8: IODVA1 inhibits tumor growth of human breast and lung cancer xenografts. […] (B) Tumors were also stained for Ki67 as a proliferation marker (top panel). […] (C) Quantification of Ki67-positive and cleaved caspase 3-positive cells of tumors shown in (B). […] Animals began treatment when tumors became detectable at 10 days post-injection (*, p<0.05). […] IODVA1 treated tumors also had fewer proliferating cells compared to control vehicle treated animals, as determined by immunohistochemical staining for Ki67 (bottom) and increased intratumoral fibrosis. Representative images were taken at 100× magnification, scale bar is 200 μm. (F) Quantification of Ki67+ cells in control and IODVA1 treated tumors shown in (E).
To examine if the ability of IODVA1 to reduce oncogene-driven cell proliferation can be translated in vivo, applicants tested its efficacy on one breast cancer and one lung cancer xenograft mouse model. The breast cancer model utilizes the human triple negative breast cancer MDA-MB-231 cells. Cells were orthotopically injected into the right and left inguinal mammary glands of immunodeficient female mice. Tumor-bearing mice then received an intraperitoneal (IP) injection of 250 μL of […] IODVA1 every other day, for an average dose of 3.5 mg/kg. Dosage regimen was not optimized, and it is expected that better results are obtained if IODVA1 dosage is increased. […]
For xenograft studies, 1×10^6 MDA-MB-231 cells were suspended in PBS and injected into each inguinal mammary fat pad of nulliparous, 10-week old female athymic nude mice. Tumors were measured weekly with digital calipers and volume was calculated as [(π/6))×L×W^2] […] At necropsy, the mice were weighed and the tumors were excised, measured, weighed, fixed in 4% paraformaldehyde, and embedded in paraffin. Peripheral blood was collected by cardiac puncture and analyzed with a Hemavet (Drew Scientific, Miami Lakes, Fla., USA) for complete blood counts. […]

Nalm-1 cells = experiment: Cell survival, trypan blue exclusion; format: cell-based
Protocol: (B) IODVA1-dependent survival curves of empty vector (red circles) or p190-BCR-ABL1 (black circles) expressing Ba/F3 cells and of Nalm-1 cells. […] (C) p190-BCR-ABL1 (grey line) or Mieg3 (black line) expressing Ba/F3 cells were allowed to grow for 1 day, treated with IODVA1 (IO1, 1 μM) for 1 day, and washed (black arrow). Cells were counted for 7 days using trypan blue exclusion. (D) Ba/F3 cells stably expressing p190-BCR-ABL1 were subjected to colony formation assay in soft agar (0.25% Noble Agar in RPMI/FBS/IL-3) in the presence of DMSO or IODVA1 (1 or 10 μM). Colonies were allowed to form for 10 days then stained with iodonitrotetrazolium (1 mg/mL). Data are representative of at least three independent experiments in triplicates. Note the smaller colony size in 1 μM IODVA1 treatment group. (E) Leukemic burden (%) of treated mice before treatment (left upper panel) and at the indicated treatment time was analyzed by flow cytometry of bone marrow aspirates as population containing B220^+/CD43^+ pro-B cells. (F) Count (%) of residual leukemic (EGFP^+-BCR-ABL1) cells in peripheral blood at weeks 3 and 5 for the secondary transplant mice from FIG. 1D. […]
IODVA1 specifically targets BCR-ABL B-ALL cells in vitro. […] We then assessed survival of p190-BCR-ABL-transformed CD34^+ cells in the presence of IODVA1 by trypan blue exclusion. […]

Compound: OC1(c2ccccn2)N=C(Nc2nc3ccccc3[nH]2)N=C1c1ccccn1 (stereo not shown) [IODVA1, (Z)-2-((1H-benzo[d]imidazol-2-yl)imino)-4,5-di(pyridin-2-yl)-2,5-dihydro-1H-imidazol-5-ol]
- decrease of tumor volume compared to vehicle-treated control mice ([1]; IP, average dose of 3.5 mg/kg, four weeks post treatment): ≥ 50%
- apoptosis, cleaved caspase-3 stained tumor sections ([1]; after four weeks treatment): significant increase
- cell proliferation, Ki-67 stained tumors ([1]; after four weeks treatment): did not reveal a statistical change
- EC50 (Nalm-1 cells): 0.68 µM
